# Data as given in publication PMC9962224, “Novel Inhibitors of Acetyl- and Butyrylcholinesterase Derived from Benzohydrazides: Synthesis, Evaluation and Docking Study” (Pharmaceuticals, 2023).
# Read-outs that look alike come from different tables or passages of the source.
# Experiments:
# [1] = molecular target: T1, BChE from equine serum (EqBChE) (Equus caballus, UniProt P81908); settings: parent N-alkyl-2-[4-(trifluoromethyl)benzoyl]hydrazine-1-carboxamides; cited from earlier work
# T1 construct: BChE from equine serum; purchased Merck (Prague, Czech Republic); host or cells: equine serum (natural source)
# T1 sequence (P81908 whole entry): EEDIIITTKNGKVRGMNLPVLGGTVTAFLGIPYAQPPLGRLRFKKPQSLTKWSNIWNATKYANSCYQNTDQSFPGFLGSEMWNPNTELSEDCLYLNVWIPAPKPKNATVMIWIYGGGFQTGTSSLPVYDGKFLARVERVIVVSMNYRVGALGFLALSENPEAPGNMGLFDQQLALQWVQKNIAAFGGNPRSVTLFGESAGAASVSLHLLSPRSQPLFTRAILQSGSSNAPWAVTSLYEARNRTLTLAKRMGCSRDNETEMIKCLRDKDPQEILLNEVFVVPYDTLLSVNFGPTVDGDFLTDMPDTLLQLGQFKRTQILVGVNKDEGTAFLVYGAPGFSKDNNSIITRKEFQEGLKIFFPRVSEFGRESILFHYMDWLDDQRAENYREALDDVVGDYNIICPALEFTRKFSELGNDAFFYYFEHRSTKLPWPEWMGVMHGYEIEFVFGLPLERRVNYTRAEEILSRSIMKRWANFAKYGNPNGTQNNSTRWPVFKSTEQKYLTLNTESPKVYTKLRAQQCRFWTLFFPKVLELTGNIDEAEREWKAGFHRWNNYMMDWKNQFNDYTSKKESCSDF
# [2] = molecular target: T1, BChE from equine serum (EqBChE); experiment: biochemical; assay type: biochemical; settings: for IC50: equine serum BChE, mean ± SD from three independent experiments
# From the text: (§1) Hydrazinecarboxamides 1–3 were examined in vitro for their potential to inhibit the function of AChE (obtained from electric eel) and BChE from equine serum using Ellman’s spectrophotometric method (Table 2). The activities are expressed as IC50 values, i.e., concentrations leading to 50% inhibition of enzymatic activity. Based on the IC50 values for AChE and BChE, we calculated selectivity indexes (SI) that quantified the selectivity for each cholinesterase. SI is the ratio of IC50 for BChE/IC50 for AChE.
# (§2) The enzyme activity in the final reaction mixture (2000 µL) was 0.2 U/mL, the concentration of ATCh (or BTCh) was 40 µM, and the concentration of DTNB was 100 µM for all reactions. The investigated derivatives were dissolved in DMSO and then diluted with demineralized water (conductivity 3 μS, equipment supplier BKG Water Treatment, Hradec Králové, Czech Republic) to a concentration of 1000 µM. Five different inhibitor concentrations were used for all tested compounds in the final reaction mixture. The final concentration of DMSO was 0.2%. All experiments were performed in triplicate. The average values of the reaction rate (v0-uninhibited reaction, vi-inhibited reaction) were used to construct the dependence of v0/vi on the concentration of inhibitors. IC50 values were calculated from obtained regression curve equations.
# (§3) Acetylcholinesterase originating from electric eels (Electrophorus electricus L.; EeAChE) and butyrylcholinesterase obtained from equine serum (EqBChE) were used.
# [3] = molecular target: T2, AChE (obtained from electric eel; EeAChE) (Electrophorus electricus, UniProt O42275); experiment: biochemical; assay type: biochemical; settings: for Selectivity BChE/AChE: SI = ratio of IC50 for BChE/IC50 for AChE, above 1 = stronger inhibition of AChE; for IC50: electric eel AChE, mean ± SD from three independent experiments
# T2 construct: AChE (obtained from electric eel); purchased Merck (Prague, Czech Republic); host or cells: electric eel (natural source)
# T2 sequence (O42275 24-633): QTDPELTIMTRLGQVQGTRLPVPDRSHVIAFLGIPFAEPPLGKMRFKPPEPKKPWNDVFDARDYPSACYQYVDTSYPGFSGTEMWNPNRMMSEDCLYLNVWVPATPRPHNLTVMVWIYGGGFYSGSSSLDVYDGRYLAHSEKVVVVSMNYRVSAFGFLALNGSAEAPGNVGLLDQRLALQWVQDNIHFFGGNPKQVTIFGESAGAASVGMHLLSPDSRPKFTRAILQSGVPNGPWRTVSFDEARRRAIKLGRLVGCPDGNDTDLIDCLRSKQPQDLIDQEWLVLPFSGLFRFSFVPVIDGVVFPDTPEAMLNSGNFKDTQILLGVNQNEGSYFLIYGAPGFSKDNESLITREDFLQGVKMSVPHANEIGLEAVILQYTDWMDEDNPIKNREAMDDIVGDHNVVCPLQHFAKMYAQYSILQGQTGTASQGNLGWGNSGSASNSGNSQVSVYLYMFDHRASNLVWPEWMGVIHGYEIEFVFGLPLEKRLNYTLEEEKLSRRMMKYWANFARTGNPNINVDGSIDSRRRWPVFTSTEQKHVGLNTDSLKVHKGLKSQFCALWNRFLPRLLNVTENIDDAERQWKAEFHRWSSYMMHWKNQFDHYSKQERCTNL
# From the text: as §1, §2, §3
SMILES,IC50 [1] [µM],IC50 [2] [µM],Selectivity BChE/AChE [3],IC50 [3] [µM],Fold superiority of BChE inhibition over parent compound P2 ([2]; vs. P2) [×]
CCCCCCCCCCCCCNC(=O)NNC(=O)c1ccc(C(F)(F)F)cc1 [P2],277 ± 10.3,,,,
"CNC(=O)NNC(=O)c1ccc(O)cc1 [1aa, 2-(4-Hydroxybenzoyl)-N-methylhydrazine-1-carboxamide]",,247 ± 18.4,3.7,67.6 ± 1.3,
"CCCCCCCCCCCCCNC(=O)NNC(=O)c1cccc(Br)c1 [2j, 2-(3-Bromobenzoyl)-N-tridecylhydrazine-1-carboxamide]",,> 500,>11.3,44.34 ± 0.1,
CNC(=O)NNC(=O)c1ccc(C(C)(C)C)cc1 [1q],,281 ± 7.79,4.7,60 ± 2.47,
"CCCCCCCCCCCCCNC(=O)NNC(=O)c1ccc([N+](=O)[O-])cc1 [1l, 2-(4-Nitrobenzoyl)-N-tridecylhydrazine-1-carboxamide]",,22.31 ± 0.09,0.4,53.7 ± 1.2,12.4
"CNC(=O)NNC(=O)c1ccc([N+](=O)[O-])cc1 [1k, N-Methyl-2-(4-nitrobenzoyl)hydrazine-1-carboxamide]",,178 ± 9.13,3.3,54 ± 2.21,
"CNC(=O)NNC(=O)c1ccc(C)cc1 [1o, N-Methyl-2-(4-methylbenzoyl)hydrazine-1-carboxamide]",,284 ± 13.2,4.6,62.29 ± 0.56,
"CNC(=O)NNC(=O)c1ccc(OC)cc1 [1u, 2-(4-Methoxybenzoyl)-N-methylhydrazine-1-carboxamide]",,171 ± 8.36,3.0,57.2 ± 0.92,
"CCCCCCCCCCCCCNC(=O)NNC(=O)c1ccc(I)cc1 [1j, 2-(4-Iodobenzoyl)-N-tridecylhydrazine-1-carboxamide]",,192 ± 3.45,2.4,79.7 ± 2.08,
"CCCCCCCCCCCCCNC(=O)NNC(=O)c1cccc([N+](=O)[O-])c1 [2f, 2-(3-Nitrobenzoyl)-N-tridecylhydrazine-1-carboxamide]",,236 ± 6.54,3.8,62.5 ± 1.79,
"CCCCCCCCCCCCCNC(=O)NNC(=O)c1ccccc1 [1ff, 2-Benzoyl-N-tridecylhydrazine-1-carboxamide]",,235 ± 5.57,3.2,73.4 ± 2.45,
